What follows are compounds tested against T1, His-p53 Y220C (94-294) protein (Homo sapiens, UniProt P04637, Y220C) (assay: In vitro DNA binding assay (HTRF)). Conditions: % activation normalized to 2 μM Ref-1a high control.
T1 construct: His-p53 Y220C (94-294) protein
Type: biochemical
Work on `CN1CC[C@@H](Nc2cccc3c(CC(F)(F)F)c(C#CCNc4ccc(S(C)(=O)=O)cc4P(C)(C)=O)sc23)[C@@H](F)C1` [Example 171, (2-((3-(7-(((3S,4R)-3-fluoro-1-methylpiperidin-4-yl)amino)-3-(2,2,2-trifluoroethyl)benzo[b]thiophen-2-yl)prop-2-yn-1-yl)amino)-5-(methylsulfonyl)phenyl)dimethylphosphine oxide] yielded an EC50 of 178 nM. `COc1cc(S(C)(=O)=O)ccc1NCC#Cc1sc2c(NC3CC4CC3CN4)cccc2c1CC(F)(F)F` (stereo not shown) [Example 28, N-(2-(3-((2-methoxy-4-(methylsulfonyl)phenyl)amino)prop-1-yn-1-yl)-3-(2,2,2-trifluoroethyl)benzo[b]thiophen-7-yl)-2-azabicyclo[2.2.1]heptan-5-amine] gave an EC50 of 284 nM. `COCCN1CC[C@@H](Nc2cccc3c(CC(F)(F)F)c(C#CCNc4ccc(P(C)(C)=O)cc4OC)sc23)[C@@H](F)C1` (racemic) [Example 88, (4-((3-(7-(((Z)-3-fluoro-1-(2-methoxyethyl)piperidin-4-yl)amino)-3-(2,2,2-trifluoroethyl)benzo[b]thiophen-2-yl)prop-2-yn-1-yl)amino)-3-methoxyphenyl)dimethylphosphine oxide] gave an EC50 of 404 nM. With `COc1cc(S(C)(=O)=O)ccc1NCC#Cc1sc2c(NC3C4CCC3CN(C)C4)cccc2c1CC(F)(F)F` (stereo not shown) [Example 25, N-(2-(3-((2-methoxy-4-(methylsulfonyl)phenyl)amino)prop-1-yn-1-yl)-3-(2,2,2-trifluoroethyl)benzo[b]thiophen-7-yl)-3-methyl-3-azabicyclo[3.2.1]octan-8-amine] the EC50 was 312 nM. Work on `COc1nc(P(C)(C)=O)ccc1NCC#Cc1sc2c(N[C@@H]3CCN(C4CCOCC4)C[C@@H]3F)cccc2c1CC(F)(F)F` [Example 179, (5-((3-(7-(((3S,4R)-3-fluoro-1-(tetrahydro-2H-pyran-4-yl)piperidin-4-yl)amino)-3-(2,2,2-trifluoroethyl)benzo[b]thiophen-2-yl)prop-2-yn-1-yl)amino)-6-methoxypyridin-2-yl)dimethylphosphine oxide] yielded an EC50 of 134 nM. Compound `COc1cc(P(C)(C)=O)ccc1NCC#Cc1sc2c(NC3CCN(C)CC3F)cccc2c1CC#N` (stereo not shown) [Example 133, 2-(2-(3-((4-(dimethylphosphoryl)-2-methoxyphenyl)amino)prop-1-yn-1-yl)-7-(((E)-3-fluoro-1-methylpiperidin-4-yl)amino)benzo[b]thiophen-3-yl)acetonitrile] has an EC50 of 311 nM. Compound `COc1cc(S(=O)(=O)NCC(O)CO)ccc1NCC#Cc1sc2c(NC3CCN(C)CC3)cccc2c1CC(F)(F)F` (stereo not shown) [Example 24, N-(2,3-dihydroxypropyl)-3-methoxy-4-((3-(7-((1-methylpiperidin-4-yl)amino)-3-(2,2,2-trifluoroethyl)benzo[b]thiophen-2-yl)prop-2-yn-1-yl)amino)benzenesulfonamide] has an EC50 of 56 nM. `COc1cc(NCC#Cc2sc3c(NC4CCN(C)CC4F)cccc3c2CC(F)(F)F)ccc1P(C)(C)=O` (stereo not shown) [Example 151, (4-((3-(7-(((Z)-3-fluoro-1-methylpiperidin-4-yl)amino)-3-(2,2,2-trifluoroethyl)benzo[b]thiophen-2-yl)prop-2-yn-1-yl)amino)-2-methoxyphenyl)dimethylphosphine oxide] showed an EC50 of 60 nM. Work on `CSc1c(NCC#Cc2sc3c(N[C@@H]4CCN(C)C[C@@H]4F)cccc3c2CC(F)(F)F)ccc(P(C)(C)=O)c1F` [Example 221, (2-fluoro-4-((3-(7-(((3S,4R)-3-fluoro-1-methylpiperidin-4-yl)amino)-3-(2,2,2-trifluoroethyl)benzo[b]thiophen-2-yl)prop-2-yn-1-yl)amino)-3-(methylthio)phenyl)dimethylphosphine oxide] yielded an EC50 of 169 nM. `COc1cc(P(C)(C)=O)ccc1NCC#Cc1sc2c(N[C@@H]3CCN(C4CCS(=O)(=O)CC4)C[C@@H]3F)cccc2c1CC(F)(F)F` (relative stereo) [Example 93, (Z)—N-[2-[3-(4-dimethylphosphoryl-2-methoxy-anilino)prop-1-ynyl]-3-(2,2,2-trifluoroethyl)benzothiophen-7-yl]-1-(1,1-dioxothian-4-yl)-3-fluoro-piperidin-4-amine] showed an EC50 of 151 nM. Compound `COc1cc(S(C)(=O)=O)ccc1NCC#Cc1sc2c(NC3CC4(CCN(C)CC4)C3)cccc2c1CC(F)(F)F` [Example 33, N-(2-(3-((2-methoxy-4-(methylsulfonyl)phenyl)amino)prop-1-yn-1-yl)-3-(2,2,2-trifluoroethyl)benzo[b]thiophen-7-yl)-7-methyl-7-azaspiro[3.5]nonan-2-amine] has an EC50 of 621 nM. Work on `COc1cc(S(C)(=O)=O)ccc1NCC#Cc1sc2c(N(C)C3CCN(C)CC3F)cccc2c1CC(F)(F)F` (stereo not shown) [Example 42, (Z)-3-fluoro-N-(2-(3-((2-methoxy-4-(methylsulfonyl)phenyl)amino)prop-1-yn-1-yl)-3-(2,2,2-trifluoroethyl)benzo[b]thiophen-7-yl)-N,1-dimethylpiperidin-4-amine] yielded an EC50 of 654 nM. Compound `COc1cc(S(N)(=O)=O)ccc1NCC#Cc1sc2c(NC3CCN(C)CC3)cccc2c1CC(F)(F)F` [Example 23, 3-methoxy-4-((3-(7-((1-methylpiperidin-4-yl)amino)-3-(2,2,2-trifluoroethyl)benzo[b]thiophen-2-yl)prop-2-yn-1-yl)amino)benzenesulfonamide] has an EC50 of 100 nM. `COc1cc(P(C)(C)=O)ccc1OCC#Cc1sc2c(N[C@@H]3CCN(C)C[C@@H]3F)cccc2c1CC(F)(F)F` (racemic) [Example 123, (4-((3-(7-(((Z)-3-fluoro-1-methylpiperidin-4-yl)amino)-3-(2,2,2-trifluoroethyl)benzo[b]thiophen-2-yl)prop-2-yn-1-yl)oxy)-3-methoxyphenyl)dimethylphosphine oxide] showed an EC50 of 147 nM. `COc1cc(S(N)(=O)=O)ccc1NCC#Cc1sc2c(NC3CCN(C)CC3F)cccc2c1CC(F)(F)F` (stereo not shown) [Example 40, 4-((3-(7-(((Z)-3-fluoro-1-methylpiperidin-4-yl)amino)-3-(2,2,2-trifluoroethyl)benzo[b]thiophen-2-yl)prop-2-yn-1-yl)amino)-3-methoxybenzenesulfonamide] showed an EC50 of 60 nM. In the case of `COc1cc(S(C)(=O)=O)ccc1NCC#Cc1sc2c(NC3C4CNCC3CNC4)cccc2c1CC(F)(F)F` (stereo not shown) [Example 78, N-(2-(3-((2-methoxy-4-(methylsulfonyl)phenyl)amino)prop-1-yn-1-yl)-3-(2,2,2-trifluoroethyl)benzo[b]thiophen-7-yl)-3,7-diazabicyclo[3.3.1]nonan-9-amine], the EC50 is reported as 134 nM. For `COc1cc(S(C)(=O)=O)ccc1NCC#Cc1sc2c(N[C@H]3CC[C@H](N4CC5(COC5)C4)CC3)cccc2c1CC(F)(F)F` [Example 17, trans-N-(4-(2-oxa-6-azaspiro[3.3]heptan-6-yl)cyclohexyl)-2-(3-((2-methoxy-4-(methylsulfonyl)phenyl)amino)prop-1-yn-1-yl)-3-(2,2,2-trifluoroethyl)benzo[b]thiophen-7-amine], the EC50 was 72 nM. For `COc1cc(C(=O)NO)ccc1NCC#Cc1sc2c(NC3CCN(C)CC3F)cccc2c1CC(F)(F)F` (stereo not shown) [Example 58, 4-((3-(7-(((Z)-3-fluoro-1-methylpiperidin-4-yl)amino)-3-(2,2,2-trifluoroethyl)benzo[b]thiophen-2-yl)prop-2-yn-1-yl)amino)-N-hydroxy-3-methoxybenzamide], the EC50 was 90 nM. With `CNC(=O)c1ccc(NCC#Cc2sc3c(NC4CCN(C)CC4)cccc3c2CC(F)(F)F)c(OC)c1` [Example 8, 3-methoxy-N-methyl-4-((3-(7-((1-methylpiperidin-4-yl)amino)-3-(2,2,2-trifluoroethyl)benzo[b]thiophen-2-yl)prop-2-yn-1-yl)amino)benzamide] the EC50 was 112 nM. For `CCN1CC[C@@H](Nc2cccc3c(CC(F)(F)F)c(C#CCNc4ccc(P(C)(C)=O)cc4OC)sc23)[C@@H](F)C1` (racemic) [Example 100, (4-((3-(7-(((Z)-1-ethyl-3-fluoropiperidin-4-yl)amino)-3-(2,2,2-trifluoroethyl)benzo[b]thiophen-2-yl)prop-2-yn-1-yl)amino)-3-methoxyphenyl)dimethylphosphine oxide], the EC50 was 40 nM. Compound `COCCOc1cc(S(C)(=O)=O)ccc1NCC#Cc1sc2c(NC3CCN(C)CC3)cccc2c1CC(F)(F)F` [Example 14, N-[2-[3-[2-(2-methoxyethoxy)-4-methylsulfonyl-anilino]prop-1-ynyl]-3-(2,2,2-trifluoroethyl)benzothiophen-7-yl]-1-methyl-piperidin-4-amine] has an EC50 of 199 nM. `COc1cc(S(C)(=O)=O)ccc1NCC#Cc1sc2c(NC3CCC(N(C)C)CC3)cccc2c1CC(F)(F)F` (stereo not shown) [Example 16, N1-(2-(3-((2-methoxy-4-(methylsulfonyl)phenyl)amino)prop-1-yn-1-yl)-3-(2,2,2-trifluoroethyl)benzo[b]thiophen-7-yl)-N4,N4-dimethylcyclohexane-1,4-diamine] gave an EC50 of 124 nM. Work on `COc1cc(S(=O)(=O)N2CCOCC2)ccc1NCC#Cc1sc2c(NC3CCN(C)CC3)cccc2c1CC(F)(F)F` [Example 22, N-(2-(3-((2-methoxy-4-(morpholinosulfonyl)phenyl)amino)prop-1-yn-1-yl)-3-(2,2,2-trifluoroethyl)benzo[b]thiophen-7-yl)-1-methylpiperidin-4-amine] yielded an EC50 of 288 nM. `COc1cc(P(C)(C)=O)ccc1NCC#Cc1sc2c(NCC34CCCN3CCC4)cccc2c1CC(F)(F)F` [Example 54, (3-methoxy-4-((3-(7-(((tetrahydro-1H-pyrrolizin-7a(5H)-yl)methyl)amino)-3-(2,2,2-trifluoroethyl)benzo[b]thiophen-2-yl)prop-2-yn-1-yl)amino)phenyl)dimethylphosphine oxide] gave an EC50 of 224 nM. `CN1CC[C@H](Nc2cccc3c(CC(F)(F)F)c(C#CCNc4ccc(P(C)(C)=O)cc4OC(F)(F)F)sc23)[C@H](F)C1` [Example 137, (4-((3-(7-(((3R,4S)-3-fluoro-1-methylpiperidin-4-yl)amino)-3-(2,2,2-trifluoroethyl)benzo[b]thiophen-2-yl)prop-2-yn-1-yl)amino)-3-(trifluoromethoxy)phenyl)dimethylphosphine oxide] was tested, and the EC50 was 78 nM.
